In patent US20240391870A1 (Arcturus Therapeutics, Inc., priority 2023, published 2024):

Key:
hEPO = hEPO mRNA expression evaluation (hEPO-LNPs); type: in vivo, Balb/c mice; conditions: Table 2; 0.1 mpk i.v., serum hEPO after 6 hr
Description: Protocol for hEPO mRNA Expression Evaluation
Lipid formulations comprising a hEPO mRNA below were evaluated for their ability to express hEPO in vivo according to the protocol of this example. All animal experiments were conducted using institutionally-approved protocols (IACUC). In this protocol, female Balb/c mice at least 6-8 weeks of age were purchased from Charles River Laboratory. […] After 6 hr, blood was collected with serum separation tubes, and the serum was isolated by centrifugation. Serum hEPO levels were then measured using an ELISA assay (Human Erythropoietin Quantikine IVD ELISA Kit, R&D Systems, Minneapolis, MD).

factor VII = assay: Factor VII knock down evaluation (LNP with FVII siRNA); type: in vivo, Balb/C mice; conditions: Table 2, plasma FVII after 48 h vs saline control; for FVII KD % 0.01 mpk: 0.01 mpk i.v.; for FVII KD % 0.03 mpk: 0.03 mpk i.v.
Description: Lipid formulations comprising a FVII siRNA further described below were evaluated for their knockdown activity using the protocol of this example. In the FVII evaluation, seven to eight week-old, female Balb/C mice were purchased from Charles River Laboratories (Hollister, CA). The mice were held in a pathogen-free environment and all procedures involving the mice were performed in accordance with guidelines established by the Institutional Animal Care and Use Committee (IACUC). Lipid nanoparticles containing factor VII siRNA were administered intravenously at a dosing volume of 10 mL/kg and two dose levels (0.03 and 0.01 mg/kg). After 48 h, the mice were anesthetized with isoflurane and blood was collected retro-orbitally into Microtainer® tubes coated with 0.109 M sodium citrate buffer (BD Biosciences, San Diego, CA) and processed to plasma. Plasma specimens were tested for factor VII levels immediately or stored at −80° C. for later analysis. Measurement of FVII protein in plasma was determined using the colorimetric Biophen VII assay kit (Aniara Diagnostica, USA). Absorbance was measured at 405 nm and a calibration curve was generated using the serially diluted control plasma to determine levels of factor VII in plasma from treated animals, relative to the saline-treated control animals.

Mouse plasma stability = type: in vitro ADME, CD-1 mouse; conditions: Table 2, mouse plasma 37 C, 1 uM lipid
Description: Lipid stock solution was prepared by dissolution of the lipid in isopropanol at the concentration of 5 mg/mL. A requisite volume of the lipid-isopropanol solution was then diluted to 100 μM concentration at a total volume of 1.0 mL with in 50:50 (v/v) ethanol/water. Ten microliters of this 100 μM solution was spiked into 1.0 mL of mouse plasma (BioIVT, Cat. No.: MSE00PLNHUNN, CD-1 mouse, anticoagulant: sodium heparin, not filtered) that was pre-warmed to 37° C. and was stirred at 50 rpm with a magnetic stir bar. The starting concentration of lipids in plasma was thus 1 μM. At time points 0, 15, 30, 45, 60 and 120 min, 0.1 mL of the plasma was withdrawn from the reaction mixture and the protein was precipitated by adding 0.9 mL of ice-cold 4:1 (v/v) acetonitrile/methanol with 1 μg/mL of a selected internal standard lipid added. After filtration through a 0.45 micron 96-well filtering plate, the filtrates were analyzed by LC-MS (Thermo Fisher's Vanquish UHPLC—LTQ XL linear ion trap Mass Spectrometer); Waters XBridge BEH Shield RP18 2.5 micron (2.1×100 mm) column with its matching guard column. Mobile phase A was 0.1% formic acid in water, and mobile phase B was 0.1% formic acid in 1:1 (v/v) acetonitrile/methanol. Flow rate was 0.5 ml/min. Elution gradient was: Time 0-1 min: 10% B; 1-6 min: 10%-95% B; 6-8.5 min: 95% B; 8.5-9 min: 95%-10% B; 9-10 min: 10% B. Mass spectrometry was in positive scanning mode from 600-1100 m/z. The peak of the molecular ion of the lipids was integrated in the extracted ion chromatography (XIC) using Xcalibur software (Thermo Fisher). The relative peak area compared to T=0, after normalization by the peak area of the internal standard, was used as the percentage of the lipid remaining at each time point. T1/2 values were calculated using the first-order decay model.

[1] = In vivo biodegradability assay (lipid in liver); conditions: Table 2, mouse liver, 48 h

Row | SMILES | Percent remaining in mouse plasma after 2 h (Mouse plasma stability) | In vivo degradability (ng/tissue) at 48h 0.03 mpk [1] | In vivo degradability (ng/tissue) at 48h 0.1 mpk [1] | EPO exprssn (ng/mL) 0.1 mpk (hEPO) | FVII KD % 0.01 mpk (factor VII) | FVII KD % 0.03 mpk (factor VII)
1 | CCCCCCCCC(=O)OCC(COC(=O)CCCCCCCC)COC(=O)CCCN(CCCC(=O)OCC(COC(=O)CCCCCCCC)COC(=O)CCCCCCCC)C(=O)SCCCN(C)C [LIPID 25] | 100% | BLOQ | BLOQ | 2945 ng/mL | 63% | 95%
2 | CCCCCCCCC(=O)OCC(COC(=O)CCCCCCCC)COC(=O)CCN(CCC(=O)OCC(COC(=O)CCCCCCCC)COC(=O)CCCCCCCC)C(=O)SCCN(C)C [LIPID 26] | 100% | BLOQ | BLOQ | 70 ng/mL | 8% | 50%
3 | CN(C)CCCSC(=O)N(CCCC(=O)OC(COC(=O)C1CC2CCCCC2C1)COC(=O)C1CC2CCCCC2C1)CCCC(=O)OC(COC(=O)C1CC2CCCCC2C1)COC(=O)C1CC2CCCCC2C1 (stereo not drawn) [LIPID 28] | 100% | BLOQ | BLOQ | 216 ng/mL | 26% | 75.3%
4 | CN(C)CCCSC(=O)N(CCCC(=O)OC(COC(=O)C1CCC2CCCC2C1)COC(=O)C1CCC2CCCC2C1)CCCC(=O)OC(COC(=O)C1CCC2CCCC2C1)COC(=O)C1CCC2CCCC2C1 (stereo not drawn) [LIPID 30, ((4,4′-((((3-(dimethylamino)propyl)thio)carbonyl)azanediyl)bis (butanoyl))bis(oxy))bis(propane-2,1,3-triyl)tetrakis(octahydro-1H-indene-5-carboxylate)] | 100% | BLOQ | BLOQ | 95 ng/mL | 3.2% | 62.1%
5 | CCCCCCC(C)C(=O)OCC(COC(=O)C(C)CCCCCC)OC(=O)CCCN(CCCC(=O)OC(COC(=O)C(C)CCCCCC)COC(=O)C(C)CCCCCC)C(=O)OCCCN(C)C (stereo not drawn) [LIPID 35, [2-[4-[3-(dimethylamino)propoxycarbonyl-[4-[2-(2-methyloctanoyloxy)-1-(2-methyloctanoyloxymethyl)ethoxy]-4-oxo-butyl]amino]butanoyloxy]-3-(2-methyloctanoyloxy)propyl]2-methyloctanoate] | – | – | – | 678 ng/mL | 68.5% | 84%
6 | CCCCCCC(C)C(=O)OCC(COC(=O)C(C)CCCCCC)OC(=O)CCCN(CCCC(=O)OC(COC(=O)C(C)CCCCCC)COC(=O)C(C)CCCCCC)C(=O)NCCCN(C)C (stereo not drawn) [LIPID 36, [2-[4-[3-(dimethylamino)propylcarbamoyl-[4-[2-(2-methyloctanoyloxy)-1-(2-methyloctanoyloxymethyl)ethoxy]-4-oxo-butyl]amino]butanoyloxy]-3-(2-methyloctanoyloxy)propyl]2-methyloctanoate] | – | – | – | 0 ng/mL | 0% | 0%
7 | Cc1ccc(CCC(C)C(=O)OCC(COC(=O)C(C)CCc2ccc(C)cc2)OC(=O)CCCN(CCCC(=O)OC(COC(=O)C(C)CCc2ccc(C)cc2)COC(=O)C(C)CCc2ccc(C)cc2)C(=O)SCCCN(C)C)cc1 (stereo not drawn) [LIPID 41, ((4,4′-((((3-(dimethylamino)propyl)thio)carbonyl)azanediyl)bis (butanoyl))bis(oxy))bis(propane-2,1,3-triyl)tetrakis(2-methyl-4-(p-tolyl)butanoate)] | – | – | – | 1209 ng/mL | 56% | 76%

Second part, led by results:

Row | Percent remaining in mouse plasma after 2 h (Mouse plasma stability) | In vivo degradability (ng/tissue) at 48h 0.03 mpk [1] | In vivo degradability (ng/tissue) at 48h 0.1 mpk [1] | SMILES | EPO exprssn (ng/mL) 0.1 mpk (hEPO) | FVII KD % 0.01 mpk (factor VII) | FVII KD % 0.03 mpk (factor VII)
8 | 100% | <340 ng/tissue | <340 ng/tissue | CC1CCC(CCC(=O)OCC(C)(COC(=O)CCC2CCC(C)CC2)COC(=O)CCN(CCC(=O)OCC(C)(COC(=O)CCC2CCC(C)CC2)COC(=O)CCC2CCC(C)CC2)C(=O)SCCCN(C)C)CC1 (stereo not drawn) [LIPID 20] | 1148 ng/mL | 36% | 74%
9 | 100% | <340 ng/tissue | <340 ng/tissue | CC1CCC(CC(=O)OCC(C)(COC(=O)CCN(CCC(=O)OCC(C)(COC(=O)CC2CCC(C)CC2)COC(=O)CC2CCC(C)CC2)C(=O)SCCCN(C)C)COC(=O)CC2CCC(C)CC2)CC1 (stereo not drawn) [LIPID 21] | 1028 ng/mL | 57% | 90%
10 | 100% | <340 ng/tissue | <340 ng/tissue | CCC1CCC(C(=O)OCC(C)(COC(=O)CCN(CCC(=O)OCC(C)(COC(=O)C2CCC(CC)CC2)COC(=O)C2CCC(CC)CC2)C(=O)SCCCN(C)C)COC(=O)C2CCC(CC)CC2)CC1 (stereo not drawn) [LIPID 22] | 1104 ng/mL | 56% | 87%
11 | 100% | <340 ng/tissue | <340 ng/tissue | CCCCC(C)(C)CC(=O)OCC(C)(COC(=O)CCN(CCC(=O)OCC(C)(COC(=O)CC(C)(C)CCCC)COC(=O)CC(C)(C)CCCC)C(=O)SCCCN(C)C)COC(=O)CC(C)(C)CCCC [LIPID 23] | 730 ng/mL | 17% | 61.7%
12 | 100% | BLOQ | BLOQ | CCCCCCCC(=O)OCC(C)(COC(=O)CCCCCCC)COC(=O)CCN(CCC(=O)OCC(C)(COC(=O)CCCCCCC)COC(=O)CCCCCCC)C(=O)SCCCN(C)C [LIPID 24] | 1420 ng/mL | 60.5% | 87.4%
13 | 100% | BLOQ | BLOQ | CC1CCC(CCC(=O)OCC(COC(=O)CCC2CCC(C)CC2)COC(=O)CCN(CCC(=O)OCC(COC(=O)CCC2CCC(C)CC2)COC(=O)CCC2CCC(C)CC2)C(=O)SCCCN(C)C)CC1 (stereo not drawn) [LIPID 27] | 69 ng/mL | 48.1% | 84.9%
